Assay results: US11505558B1, “Antiviral heterocyclic compounds” (Enanta Pharmaceuticals, Inc., priority 2019, dated 2022)

Test system: genotype A, "Long" strain RSV
Assay: RSV-A assay (CPE, ATPlite readout in Hep-2 cells)
Assay type: cell-based
Conditions: human respiratory syncytial virus, HEp-2, Hep-2 cells, genotype A "Long" strain RSV, MOI 0.1; read-out: Human RSV-A (“Long” strain) EC50
Source text: Hep-2 cells, (originally derived from tumors grown in irradiated-cortisonised weanling rats that had been injected with epidermoid carcinoma tissue from a person's larynx, but later found to be indistinguishable from HeLa cells by PCR DNA analysis), were used for the culturing of genotype A, “Long” strain RSV. Flasks were inoculated with RSV and viral stocks were collected once cytopathic effect (CPE) was greater than […]. Viral stocks in […] sucrose media were snap frozen using liquid nitrogen to increase viral stability. Viral stock titers were quantified by tissue culture infectious dose 50% (TCID50) using 8,000 cells per well and 3-fold viral dilutions across a 96-well plate, cultured for 4 days. Viral stock titers were also quantified by a plaque forming unit assay, as described elsewhere.
Following extensive parameter testing, the final assay is run as follows: Hep-2 cells are seeded into the inner 60 wells of a 96-well plate at 8,000 cells per well in a volume of 50 μL using Growth Media (DMEM without phenol red, 1% L-Glut, 1% Penn/Strep, 1% nonessential amino acids, 10% heat-inactivated FBS). 2-fold serial dilutions of control and test compounds are added to the wells in duplicate in a total volume of 25 μL. Viral stock is then added to the wells at a multiplicity of infection (MOI) of 0.1 in a volume of 25 μL, bringing the total volume of each well to 100 μL. The MOI is calculated using the PFU/mL, or TCID50 if unavailable. Each 96-well plate has a control column of 6 wells with cells and virus but no compound (negative control, max CPE), a column with cells but no compound or virus (positive control, minimum CPE), and a column with no cells or virus or compound (background plate/reagent control). The control wells with cells but no virus are given an additional 25 μL of growth media containing an equal quantity of sucrose as those wells receiving the viral stock in order to keep consistent in media and volume conditions. The outer wells of the plate are filled with 125 μL of moat media (DMEM, 1% Penn/Strep) to act as a thermal and evaporative moat around the test wells. Following a 5-day incubation period, the plates are read using ATPlite (50 uL added per well), which quantifies the amount of ATP (a measure of cell health) present in each well. Assay plates are read using the Envision luminometer. […] EC50 ranges are as follows: A<0.2 μM; B>0.2 μM.

Row | Structure (SMILES) | EC50 [nM]
1 | COc1cc(C(=O)NC[C@](O)(c2cc3c(c(-c4ccc(F)cc4)n2)OC[C@]3(C)C(N)=O)C(F)(F)F)cc2cc3c(nc12)CCCC3 [Example 612] | < 200
2 | Cn1cc2cc(C(=O)NC[C@](O)(c3cc4c(c(-c5ccc(F)c(Cl)c5)n3)OC[C@]4(C)C(N)=O)C(F)(F)F)ccc2n1 [Example 639] | < 200
3 | C[C@]1(C(N)=O)COc2c1cc([C@@](O)(CNC(=O)c1cnc3cnccc3c1)C(F)(F)F)nc2-c1ccc(F)cc1 [Example 244] | > 200
4 | C[C@]1(C(N)=O)COc2c1cc([C@@](O)(CNC(=O)c1cc(O)c3nc(C(F)(F)F)ccc3c1)C(F)(F)F)nc2-c1ccc(F)cc1 [Example 227] | > 200
5 | Cc1ncccc1-c1cc(C(=O)NC[C@](O)(c2cc3c(c(-c4ccc(F)cc4)n2)OC[C@]3(C)C(N)=O)C(F)(F)F)ccc1OC1CC1 [Example 97] | > 200
6 | COc1cc(C(=O)NC[C@](O)(c2cc3c(c(-c4ccc(F)cc4)n2)OC[C@]3(C)CNCC2CC2)C(F)(F)F)ccc1OC(F)F [Example 41] | > 200
7 | C[C@]1(C(N)=O)COc2c1cc([C@@](O)(CNC(=O)c1cc3cc(Cl)ccc3[nH]1)C(F)(F)F)nc2-c1ccc(F)cc1 [Example 589] | > 200
8 | C[C@]1(C(N)=O)COc2c1cc([C@@](O)(CNC(=O)c1ccc(OC3CC3)c(-c3ccncc3)c1)C(F)(F)F)nc2-c1ccc(F)cc1 [Example 119] | > 200
9 | Cc1cc(C)nc(Nc2cc(C(=O)NC[C@](O)(c3cc4c(c(-c5ccc(F)cc5)n3)OC[C@]4(C)C(N)=O)C(F)(F)F)cc3cccnc23)n1 [Example 344] | < 200
10 | COc1cc(C(=O)NC[C@](O)(c2cc3c(c(-c4ccc(F)cc4)n2)OC[C@]3(C)C(N)=O)C(F)(F)F)ccc1OCC(C)(C)O [Example 647] | < 200
11 | CN1Cc2cc(C(=O)NC[C@](O)(c3cc4c(c(-c5ccc(F)cc5)n3)OC[C@]4(C)C(=O)NCC(C)(C)O)C(F)(F)F)ccc2C1=O [Example 643] | < 200
12 | C[C@]1(C(=O)NCCCOC(N)=O)COc2c1cc([C@@](O)(CNC(=O)c1cc(OC3CC3)c3ncccc3c1)C(F)(F)F)nc2-c1ccc(F)cc1 [Example 457] | < 200
13 | COc1cc(C(=O)NC[C@](O)(c2cc3c(c(-c4ccc(Cl)c(F)c4)n2)OC[C@]3(C)C(N)=O)C(F)(F)F)cc2sc(N)nc12 [Example 434] | < 200
14 | C[C@]1(C(N)=O)COc2c1cc([C@@](O)(CNC(=O)c1ccc(-c3cccnc3C(F)(F)F)c(OC3CC3)c1)C(F)(F)F)nc2-c1ccc(F)cc1 [Example 145] | > 200
15 | COc1cc(C(=O)NC[C@](O)(c2cc3c(c(-c4ccc(F)cc4)n2)NC[C@]3(C)CO)C(F)(F)F)ccc1OCCO [Example 650] | < 200
16 | C[C@]1(C(=O)NCc2ccoc2)COc2c1cc([C@@](O)(CNC(=O)c1cc(OC3CC3)c3ncccc3c1)C(F)(F)F)nc2-c1ccc(F)cc1 [Example 490] | < 200
17 | C[C@]1(C(N)=O)COc2c1cc([C@@](O)(CNC(=O)c1ccc(-c3ncccn3)c(OC3CC3)c1)C(F)(F)F)nc2-c1ccc(F)cc1 [Example 163] | > 200
18 | COc1cc(C(=O)NC[C@](O)(c2cc3c(c(-c4ccc(F)cc4)n2)OC[C@]3(C)C(N)=O)C(F)(F)F)cc2cc(S(C)(=O)=O)cnc12 [Example 649] | > 200
19 | C[C@]1(C(N)=O)COc2c1cc([C@@](O)(CNC(=O)c1ccc(OC3CC3)c(-c3cncnc3)c1)C(F)(F)F)nc2-c1ccc(F)cc1 [Example 78] | < 200
20 | C[C@]1(C(N)=O)COc2c1cc([C@@](O)(CNC(=O)c1cc(Cl)c3ncccc3c1)C(F)(F)F)nc2-c1ccc(F)c(Cl)c1 [Example 220] | < 200
21 | C[C@]1(C(N)=O)COc2c1cc([C@@](O)(CNC(=O)c1cc(F)c3ncccc3c1)C(F)(F)F)nc2-c1ccc(F)cc1 [Example 63] | < 200
22 | COc1ccc2c(C(=O)NC[C@](O)(c3cc4c(c(-c5ccc(F)cc5)n3)OC[C@]4(C)C(N)=O)C(F)(F)F)n[nH]c2c1 [Example 331] | > 200
23 | COc1ccc(C(=O)NC[C@](O)(c2cc3c(c(-c4ccc(F)cc4)n2)OC[C@]3(C)C(N)=O)C(F)(F)F)cc1C#N [Example 319] | < 200
24 | C[C@]1(C(N)=O)COc2c1cc([C@@](O)(CNC(=O)c1ccc(-c3cnc(C4CC4)nc3)c(OC3CC3)c1)C(F)(F)F)nc2-c1ccc(F)cc1 [Example 165] | > 200

More lines, now with the values ahead:

Row | EC50 [nM] | Structure (SMILES)
25 | > 200 | CC(C)(O)CNC(=O)COc1cc(C(=O)NC[C@](O)(c2cc3c(c(-c4ccc(F)cc4)n2)OC[C@]3(C)C(N)=O)C(F)(F)F)cc2cccnc12 [Example 377]
26 | < 200 | C[C@]1(C(N)=O)COc2c1cc([C@@](O)(CNC(=O)c1ccc(-c3cnccn3)c(OC3CC3)c1)C(F)(F)F)nc2-c1ccc(F)cc1 [Example 166]
27 | > 200 | C[C@]1(C(N)=O)COc2c1cc([C@@](O)(CNC(=O)c1cc(OC3(C(N)=O)CC3)c3ncccc3c1)C(F)(F)F)nc2-c1ccc(F)cc1 [Example 381]
28 | > 200 | C[C@]1(C(N)=O)COc2c1cc([C@@](O)(CNC(=O)c1nc3cccnc3[nH]1)C(F)(F)F)nc2-c1ccc(F)cc1 [Example 302]
29 | < 200 | COc1cc(C(=O)NC[C@](O)(c2cc3c(c(-c4ccc(F)cc4)n2)OC[C@]3(C)CN[C@@H](C)C2CC2)C(F)(F)F)ccc1OC1CC1 [Example 19]
30 | > 200 | Cc1ccc2cc(C(=O)NC[C@](O)(c3cc4c(c(-c5ccc(F)cc5)n3)OC[C@]4(C)C(N)=O)C(F)(F)F)cc(NC(=O)NC3CC3)c2n1 [Example 628]
31 | > 200 | CC(C)(C)OC(=O)NCCOc1cc(C(=O)NC[C@](O)(c2cc3c(c(-c4ccc(F)cc4)n2)OC[C@]3(C)C(N)=O)C(F)(F)F)cc2cccnc12 [Example 355]
32 | > 200 | COc1cc(C(=O)NC[C@](O)(c2cc3c(c(C#Cc4cccc(F)c4)n2)OC[C@]3(C)C(N)=O)C(F)(F)F)ccc1OC1CC1 [Example 516]
33 | > 200 | Cn1c(=O)oc2ccc(C(=O)NC[C@](O)(c3cc4c(c(-c5ccc(F)cc5)n3)OC[C@]4(C)C(N)=O)C(F)(F)F)cc21 [Example 328]
34 | > 200 | C[C@]1(C(N)=O)COc2c1cc([C@@](O)(CNC(=O)c1cc(Oc3ncccn3)c3ncccc3c1)C(F)(F)F)nc2-c1ccc(F)cc1 [Example 614]
35 | > 200 | Cc1cnccc1-c1ccc(C(=O)NC[C@](O)(c2cc3c(c(-c4ccc(F)cc4)n2)OC[C@]3(C)C(N)=O)C(F)(F)F)cc1OC1CC1 [Example 153]
36 | > 200 | C[C@]1(C(N)=O)COc2c1cc([C@@](O)(CNC(=O)c1ccc3[nH]c(=O)[nH]c3c1)C(F)(F)F)nc2-c1ccc(F)cc1 [Example 321]
37 | > 200 | Cc1ccncc1-c1ccc(C(=O)NC[C@](O)(c2cc3c(c(-c4ccc(F)cc4)n2)OC[C@]3(C)C(N)=O)C(F)(F)F)cc1OC1CC1 [Example 148]
38 | < 200 | COc1cc(C(=O)NC[C@](O)(c2cc3c(c(-c4ccc(F)c(C)c4)n2)OC[C@]3(C)C(=O)NCC(C)(C)O)C(F)(F)F)cc2cc(C)cnc12 [Example 503]
39 | < 200 | C[C@]1(C(N)=O)COc2c1cc([C@@](O)(CNC(=O)c1ccc(OC3CC3)c(-c3ccccn3)c1)C(F)(F)F)nc2-c1ccc(F)cc1 [Example 106]
40 | < 200 | C[C@]1(C(N)=O)COc2c1cc([C@@](O)(CNC(=O)c1ccc3c(c1)NCCO3)C(F)(F)F)nc2-c1ccc(F)cc1 [Example 607]
41 | > 200 | C[C@]1(C(N)=O)COc2c1cc([C@@](O)(CNC(=O)c1ccc(-c3ccncc3C(F)(F)F)c(OC3CC3)c1)C(F)(F)F)nc2-c1ccc(F)cc1 [Example 154]
42 | < 200 | Cc1cnc2c(OC3CC3)cc(C(=O)NC[C@](O)(c3cc4c(c(-c5ccc(F)cc5)n3)OC[C@]4(C)C(N)=O)C(F)(F)F)cc2c1 [Example 263]
43 | > 200 | COc1cc(C(=O)NCC(O)(c2cc3c(c(-c4ccc(F)cc4)n2)OC[C@]3(C)C(=O)NS(=O)(=O)C2CC2)C(F)(F)F)ccc1OCCO (stereo partly drawn) [Example 12]
44 | > 200 | C[C@]1(C(N)=O)COc2c1cc([C@@](O)(CNC(=O)c1ccc(N3CCCCC3)c(OC3CC3)c1)C(F)(F)F)nc2-c1ccc(F)cc1 [Example 161]
45 | < 200 | CNC(=O)CCNC(=O)[C@@]1(C)COc2c1cc([C@@](O)(CNC(=O)c1cc(OC3CC3)c3ncccc3c1)C(F)(F)F)nc2-c1ccc(F)cc1 [Example 474]
46 | > 200 | COc1cc(C(=O)NC[C@](O)(c2cc3c(c(-c4ccc(F)cc4)n2)OC[C@@]3(C)C(N)=O)C(F)(F)F)ccc1OCCF [Example 317]
47 | > 200 | COc1cc(C(=O)NCC(O)(c2cc3c(c(-c4ccc(F)cc4)n2)OC[C@]3(C)C(=O)O)C(F)(F)F)ccc1OCCO (stereo partly drawn) [Example 13]
48 | < 200 | COc1ccc2[nH]c(C(=O)NC[C@](O)(c3cc4c(c(-c5ccc(F)cc5)n3)OC[C@]4(C)C(N)=O)C(F)(F)F)cc2c1 [Example 598]
